Reference: publication PMC4063695, “Design of Embedded-Hybrid Antimicrobial Peptides with Enhanced Cell Selectivity and Anti-Biofilm Activity” (PLoS ONE, 2014)
Where two headings read alike, the source gives them in different places. No end group written: not given here.

Columns and labels:
[1] = tested on: B. subtilis CMCC63501
Description: (§1) E. coli ATCC25922, P. aeruginosa ATCC27853, S. aureus ATCC29213, S. epidermidis ATCC12228, S. faecalis ATCC29212 and B. subtilis CMCC63501 were obtained from the College of Veterinary Medicine, Northeast Agricultural University (Harbin, China), E. coli K88, E. coli CVCC1515 and P. aeruginosa ATCC15442 were bestowed by Prof. J.H. Wang (Gene Engineering Laboratory, Feed Research Institute, Chinese Academy of Agricultural Sciences Beijing, China) and E. coli UB1005 was kindly provided by Prof. Q.S. Qi (State Key Laboratory of Microbial Technology, Shandong University, China). […] Briefly, 50 µl of approximate 0.5–1 × 10^6 colony forming units (CFU)/ml of cells were diluted in Mueller-Hinton broth and distributed to 96-well plate, 50 µl of twofold peptides were added and the plates was incubated at 37°C for 18–24 h. The MIC values were calculated as the lowest peptide concentration that prevented visible turbidity and negative control of the pure broth without microbes. The tests were performed at least three times in duplicate.

[2] = tested on: E. coli ATCC25922
Description: as §1

[3] = tested on: E. coli CVCC1515
Description: as §1

[4] = tested on: E. coli K88; details: MHB, 37°C, 18-24 h, at least three times in duplicate
Description: as §1

[5] = tested on: E. coli UB1005
Description: as §1

[6] = tested on: P. aeruginosa ATCC15442
Description: as §1

[7] = tested on: P. aeruginosa ATCC27853
Description: as §1

[8] = tested on: P. aeruginosa variant 1; details: P. aeruginosa variant 1, obtained by step-wise culture with ciprofloxacin hydrochloride; MHB, 37°C, 18-24 h
Description: as §1

[9] = tested on: P. aeruginosa variant 2; details: P. aeruginosa variant 2, obtained by step-wise culture with gentamicin; MHB, 37°C, 18-24 h
Description: as §1

[10] = tested on: S. pullorum C79-13
Description: as §1

[11] = tested on: S. typhimurium ATCC14028
Description: as §1

[12] = tested on: S.aureus ATCC29213
Description: as §1

[13] = tested on: S.epidermidis ATCC12228
Description: as §1

[14] = tested on: S.faecalis ATCC29212
Description: as §1

[15] = tested on: Gram-negative and Gram-positive strains; assay: MIC over all tested strains (range, geometric mean); assay type: cell-based; set-up: GM (geometric mean of MIC values from all microbial strains): unit not given here; details: for GM (geometric mean of MIC values from all microbial strains): all strains of Table 2
Description: as §1

[16] = tested on: human red blood cells (hRBC); assay: Hemolytic activity; assay type: cell-based
Procedure: The amount of released hemoglobin by the lysis of erythrocytes was measured for hemolytic activity of peptides. Human erythrocytes were obtained from a healthy donor with written informed consent. The experimental protocol was reviewed and approved by the ethics committee of the Northeast Agricultural University Hospital. The measurement was based on a previously described method. The fresh hRBCs were washed three times by centrifugation (1000 g, 5 min, 4°C) in PBS (pH 7.4), and then resuspended in PBS to obtain the erythrocyte with a dilution of approximately 1% (v/v). Then, 50 µL of hRBCs solution was incubated with 50 µL of different concentrations of the peptides dissolved in PBS for 1 h at 37°C, before centrifugation (1000 g, 5 min, 4°C) again. The absorbance of the supernatants was measured at optical density (OD) 492 nm. […] The control samples for 0% and 100% hemolysis consisted of hRBCs in PBS (Ablank) only and in 0.1% Triton X-100 (Atriton), respectively. The percentage of hemolysis was calculated according to the following equation: [drawing 3]

[17] = Circular dichroism, secondary structure; assay type: physicochemical; details: 30 mM SDS micelles; 150 µM peptide
Procedure: The CD spectra were measured with a CD spectropolarimeter (Jasco, J-820, Tokyo, Japan) at 25°C, using a 0.1 cm path length rectangular quartz cell. The spectra were recorded at between 190 and 250 nm at 10 nm/min scanning speed. At least three scans were conducted for each peptide sample.
The acquired CD spectra were converted to the mean residue ellipticity through the following equation: [drawing 1]
where θM is the mean residue ellipticity [deg.cm2.dmol-1], θobs is the observed ellipticity corrected for the buffer at a given wavelength [mdeg], c is the peptide concentration [mM], l is the path length [mm], and n is the number of amino acids.
The percentage of α-helical structure was calculated as followings: [drawing 2]
where [θ]222 is the experimentally observed mean residue ellipticity at 222 nm, and values for [θ]^0 and [θ]^100 which correspond to 0 and 100% a-helix content at 222 nm, are estimated to be −2000 and −32000, respectively, [29].

[18] = B. subtilis CMCC63501, MHB, 37°C, 18-24 h, at least three times in duplicate
[19] = E. coli ATCC25922, MHB, 37°C, 18-24 h, at least three times in duplicate
[20] = E. coli CVCC1515, MHB, 37°C, 18-24 h, at least three times in duplicate
[21] = E. coli UB1005, MHB, 37°C, 18-24 h, at least three times in duplicate
[22] = P. aeruginosa ATCC15442, MHB, 37°C, 18-24 h, at least three times in duplicate
[23] = P. aeruginosa ATCC27853, MHB, 37°C, 18-24 h, at least three times in duplicate
[24] = S. pullorum C79-13, MHB, 37°C, 18-24 h, at least three times in duplicate
[25] = S. typhimurium ATCC14028, MHB, 37°C, 18-24 h, at least three times in duplicate
[26] = S.aureus ATCC29213, MHB, 37°C, 18-24 h, at least three times in duplicate
[27] = S.epidermidis ATCC12228, MHB, 37°C, 18-24 h, at least three times in duplicate
[28] = S.faecalis ATCC29212, MHB, 37°C, 18-24 h, at least three times in duplicate
[29] = minimum concentration that caused 5% hemolysis of hRBC (footnote), 1% hRBC in PBS pH 7.4, 1 h, 37°C, OD 492 nm

| Substance | MIC [4] | MIC [8] | MIC [9] | GM (geometric mean of MIC values from all microbial strains) [15] | MIC [1, 18] | MIC [2, 19] | MIC [3, 20] | MIC [5, 21] | MIC [6, 22] | MIC [7, 23] | MIC [10, 24] | MIC [11, 25] | MIC [12, 26] | MIC [13, 27] | MIC [14, 28] | MHC [16, 29] | other results |
| --- | --- | --- | --- | --- | --- | --- | --- | --- | --- | --- | --- | --- | --- | --- | --- | --- | --- |
| FRIRVRV-NH2 [FV7, reference compound] | 16 µM | 8 µM | 16 µM | 29 | – | – | – | – | – | – | – | – | – | – | – | – | MIC ([1]; CMCC63501): 16 µM; MIC ([2]; ATCC25922): 16 µM; MIC ([3]; CVCC1515): 32 µM; MIC ([5]; UB1005): 32 µM; MIC ([6]; ATCC15442): 16 µM; MIC ([7]; ATCC27853): 16 µM; MIC ([10]; C79-13): 128 µM; MIC ([11]; ATCC14028): 16 µM; MIC ([12]; ATCC29213): 64 µM; MIC ([13]; ATCC12228): 32 µM; MIC ([14]; ATCC29212): 32 µM; MHC ([16]; pH 7.4): >256 µM; secondary structure (in words) [17]: β-sheet |
| RFRRLRKKTRKRLKKI-NH2 [RI16] | >256 µM | >256 µM | >256 µM | – | 64 µM | 128 µM | 128 µM | 128 µM | >256 µM | 128 µM | 64 µM | 64 µM | 128 µM | 32 µM | 128 µM | >256 µM | – |
| RKKTRKR-NH2 [RR7] | >256 µM | >256 µM | >256 µM | 256 | >256 µM | >256 µM | >256 µM | >256 µM | >256 µM | >256 µM | >256 µM | >256 µM | >256 µM | >256 µM | >256 µM | >256 µM | antimicrobial activity (in words) ([15]; Gram-negative and Gram-positive strains): poor antimicrobial activity |
